Measured values: the supplement of paper PMC11451515

System: SEM cells
Experiment: cell viability relative to DMSO control; higher = less cytotoxic
Conditions: 48 h
Method in brief: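 Library compounds in DMSO were pin-dosed in an 11-point threefold series (47 μM to 0.79 nM) onto leukemia cells in 1536-well plates (5 μl). Plates held 500 cells/well of NOMO1 or SEM or 1000 cells/well of P12-Ichikawa, each adapted for at least four passages in each medium. Luminescence was read with CellTiter-Glo One after 48 h at 37°C. Viability means the per-plate percentage relative to DMSO wells, using cell-free wells as background.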

[1] = HPLM + 10% dialyzed FBS, 0.000781 µM
[2] = HPLM + 10% dialyzed FBS, 0.00234 µM
[3] = HPLM + 10% dialyzed FBS, 0.00702 µM
[4] = HPLM + 10% dialyzed FBS, 0.0211 µM
[5] = HPLM + 10% dialyzed FBS, 0.0632 µM
[6] = HPLM + 10% dialyzed FBS, 0.19 µM
[7] = HPLM + 10% dialyzed FBS, 0.569 µM
[8] = HPLM + 10% dialyzed FBS, 1.71 µM
[9] = HPLM + 10% dialyzed FBS, 5.12 µM
[10] = HPLM + 10% dialyzed FBS, 15.4 µM
[11] = HPLM + 10% dialyzed FBS, 46.1 µM
[12] = RPMI 5 mM glucose + 10% FBS, 0.000781 µM
[13] = RPMI 5 mM glucose + 10% FBS, 0.00234 µM
[14] = RPMI 5 mM glucose + 10% FBS, 0.00702 µM
[15] = RPMI 5 mM glucose + 10% FBS, 0.0211 µM
[16] = RPMI 5 mM glucose + 10% FBS, 0.0632 µM
[17] = RPMI 5 mM glucose + 10% FBS, 0.19 µM
[18] = RPMI 5 mM glucose + 10% FBS, 0.569 µM
[19] = RPMI 5 mM glucose + 10% FBS, 1.71 µM
[20] = RPMI 5 mM glucose + 10% FBS, 5.12 µM
[21] = RPMI 5 mM glucose + 10% FBS, 15.4 µM
[22] = RPMI 5 mM glucose + 10% FBS, 46.1 µM

Compound | cell viability [1] | cell viability [2] | cell viability [3] | cell viability [4] | cell viability [5] | cell viability [6] | cell viability [7] | cell viability [8] | cell viability [9] | cell viability [10] | cell viability [11] | cell viability [12] | cell viability [13] | cell viability [14] | cell viability [15] | cell viability [16] | cell viability [17] | cell viability [18] | cell viability [19] | cell viability [20] | cell viability [21] | cell viability [22]
Cc1n[nH]c2ccc(-c3cncc(OC[C@@H](N)Cc4ccccc4)c3)cc12 | 117% | 124% | 117% | 108% | 123% | 98.2% | 71.6% | 56.3% | 14.5% | 5.34% | 4.07% | 105% | 105% | 116% | 110% | 102% | 98% | 92.7% | 64% | 7.19% | 4.27% | 3.39%
CC(C)(C)[C@]1(O)C[C@@H]2OC(=O)C[C@@]23C(=O)O[C@@H]2OC(=O)[C@H](O)C213 (some centres undefined) | 113% | 108% | 109% | 104% | 110% | 99.1% | 104% | 111% | 105% | 113% | 115% | 110% | 139% | 120% | 148% | 114% | 108% | 113% | 90.4% | 118% | 134% | 125%
